Laboratory results from patent US20240285625A1, “ERK1/2 AND KRAS G12C INHIBITORS COMBINATION THERAPY” (Erasca, Inc., priority 2021, published 2024).

Assay: Body weight loss in the CO-04-0310 PDX study
Type: in vivo, Balb/c nude mice
Details: CO-04-0310 study; Compound 1 30 mg/kg/dose BID monotherapy; DietGel starting on treatment day 14
Description: Treatment started on the day after randomization. The treatment start day was denoted as treatment day 1. Mice were dosed by oral administration of vehicle control solution or monotherapy treatments of Compound 1 at 30 mg/kg/dose BID or sotorasib at 100 mg/kg QD. An additional group received combination treatment of Compound 1 at 30 mg/kg/dose BID or sotorasib at 100 mg/kg QD. BID was dosed at an 8-hour interval. In the combination group, sotorasib was dosed first and Compound 1 was dosed one hour later. In addition to regular food and water supply. DietGel (Ready Jelly R. 76A. Ready Biotechnology (ShenZhen) Co., Ltd.) was added in cages where at least two mice in a treatment group started showing >10% BWL at any measurement day. DietGel was supplied through the remaining study period after the addition of DietGel. Per this practice, mice in the Compound 1 at 30 mg/kg/dose BID monotherapy treatment group were supplied with DictGel food starting on treatment day 14. The study was terminated on treatment day 28 as defined in the study protocol.

For `Cc1cnc(NC2CCOCC2)nc1-n1cnc(C(=O)N[C@H](CN)c2cc(F)cc(Cl)c2)c1` [Compound 1, (S)—N-(2-amino-1-(3-chloro-5-fluorophenyl)ethyl)-1-(5-methyl-2-((tetrahydro-2H-pyran-4-yl)amino)pyrimidin-4-yl)-1H-imidazole-4-carboxamide], the “BWL (at least two mice in treatment group; DietGel supplied)” value was > 10%.
